Calls of active or inactive are those of the source.
What was measured:
[1] = Luminescent dose response cell-based high throughput screening assay for inhibitors of the Janus kinase 2 mutant JAK2V617F. [Related pubchem assays: 1446 (Primary screen.), 1521 (Confirmation assay.), 1486 (Counter screen.)]; format: functional
[2] = target: T1, Sphingosine 1-phosphate receptor 4 (Homo sapiens, UniProt O95977); assay: Late stage fluorescence dose response cell-based screening assay for antagonists of the Sphingosine 1-Phosphate Receptor 4 (S1P4). [Related pubchem assays: 1524 (Confirmation screen (S1P4 antagonists).), 1510 (Primary screen (S1P4 antagonists).), 1853 (Summary AID (S1P4 antagonists).), 1692 (Dose response screen (S1P4 antagonists).)]; format: functional
T1 sequence (O95977 whole entry): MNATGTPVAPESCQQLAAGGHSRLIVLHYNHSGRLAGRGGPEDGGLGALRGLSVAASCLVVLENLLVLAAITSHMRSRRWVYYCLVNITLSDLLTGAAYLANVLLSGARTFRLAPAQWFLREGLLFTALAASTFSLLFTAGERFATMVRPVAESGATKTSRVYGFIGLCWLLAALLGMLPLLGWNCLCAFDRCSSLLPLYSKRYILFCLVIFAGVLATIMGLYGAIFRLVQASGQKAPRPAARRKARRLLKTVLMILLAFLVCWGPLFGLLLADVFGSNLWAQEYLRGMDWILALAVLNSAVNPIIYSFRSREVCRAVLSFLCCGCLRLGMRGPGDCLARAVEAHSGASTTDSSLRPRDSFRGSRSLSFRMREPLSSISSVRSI

[3] = target: T1, Sphingosine 1-phosphate receptor 4; assay: Fluorescence dose response cell-based high throughput screening assay for antagonists of the Sphingosine 1-Phosphate Receptor 4 (S1P4). [Related pubchem assays: 1524 (Confirmation in triplicates.), 1510 (Primary screen.)]; format: functional
[4] = target: Sphingosine 1-phosphate receptor 1 (Homo sapiens, UniProt P21453); format: functional;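 further: Tango beta-arrestin reporter U2OS cells stimulated with S1P near its EC80; inhibitor potency meaning antagonism of receptor activation by the natural agonist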
[5] = THP-1 cell cytotoxicity, dose response, cytotoxicity control for non-replicating M. tuberculosis project (AID 489025); format: functional
[6] = target: Heat shock protein HSP 90-alpha (Homo sapiens, UniProt P07900); format: functional, organism-based
[7] = target: T2, High affinity choline transporter 1 (Homo sapiens, UniProt Q9GZV3); assay: human choline transporter blockers, potency – cell-based, 5-point CRC, membrane potential dye, dose response (AID 504840); format: functional
T2 sequence (Q9GZV3 whole entry): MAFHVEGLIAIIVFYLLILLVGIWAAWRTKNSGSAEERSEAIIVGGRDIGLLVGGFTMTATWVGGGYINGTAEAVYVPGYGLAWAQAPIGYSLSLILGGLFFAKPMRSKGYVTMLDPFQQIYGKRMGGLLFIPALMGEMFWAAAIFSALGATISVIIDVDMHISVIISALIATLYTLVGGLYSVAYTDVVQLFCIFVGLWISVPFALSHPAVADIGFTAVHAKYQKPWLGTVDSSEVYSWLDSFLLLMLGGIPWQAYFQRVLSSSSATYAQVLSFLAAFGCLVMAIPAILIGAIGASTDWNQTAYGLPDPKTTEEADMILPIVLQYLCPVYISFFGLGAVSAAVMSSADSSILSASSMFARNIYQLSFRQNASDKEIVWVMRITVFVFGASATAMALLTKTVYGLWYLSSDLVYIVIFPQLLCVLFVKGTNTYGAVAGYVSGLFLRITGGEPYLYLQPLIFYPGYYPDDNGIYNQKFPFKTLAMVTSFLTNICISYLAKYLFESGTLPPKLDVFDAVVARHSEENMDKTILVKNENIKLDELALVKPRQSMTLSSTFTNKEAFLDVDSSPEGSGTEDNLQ

INS1 = assay: INS-1E survival protection against cytokine death – cell-based, luminescence, retest, dose response (AID 449756); format: functional; conditions: Rattus norvegicus;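 further: cell death triggered by IL-1 beta plus TNF-alpha plus IFN-gamma mixture; protective hits raise ATP signal compared with cytokine alone wells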
[8] = reduced cellular PGC1a acetyl-lysine signal – cell-based, cherry-picked samples, dose response (AID 720514); format: functional;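 further: potency may reflect raised or lowered acetylation signal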
[9] = A549 cell cytotoxicity, dose response, cytotoxicity control, plate reader, cherry-pick, antagonist series (AID 743412); format: functional, cell-based
[10] = toxicity toward HepG2 liver cells – cell-based, plate reader, cherry-pick, antagonist series, cytotoxicity control, dose response (AID 743416); format: functional
[11] = blockers of bursicon-stimulated LGR2 cAMP reporter – cell-based, HEK293, CRE-luciferase reporter, cherry pick, set 2, dose response (AID 743343); format: functional;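 further: transfected cells were stimulated with diluted bursicon conditioned medium after compound addition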
[12] = blockade of melanocortin 4 receptor signaling – cell-based, plate reader, cherry pick, counter-screen for LGR2 antagonist project, dose response (AID 743444); format: functional;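 further: transfected HEK 293 cells stimulated with alpha-MSH peptide; potency of inhibitors of the alpha-MSH evoked signal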
[13] = viability loss in HEK293 cells – cell-based, plate reader, cherry-picked samples, cytotoxicity control, dose response (AID 743446); format: functional
NADPH oxidase 1 = NADPH oxidase 1 (Homo sapiens, UniProt Q9Y5S8); format: functional, cell-based;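 further: Cell-based assay with luminescence read-out, IC50 derived from inhibitor dose-response curves; intracellular ROS from endogenous NOX1 in intact HT29 colon cancer cells; potency of inhibitors that lower the ROS luminescence signal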
[14] = Luminescence Cell-Based Dose Response to Identify Activators of 5'UTR Stem-Loop Driven Prion Protein mRNA Translation in H4-C Neuroglioblastoma Cells. [Related pubchem assays: 1829 (Project Summary), 1814 (Primary HTS)]; format: functional
[15] = Luminescence Cell-Based Dose Response HTS to Identify Activators of Luciferase Translation or Activity in H4 […] Cells. [Related pubchem assays: 1829 (Project Summary), 1814 (Primary HTS)]; format: functional
H4 = assay: Luminescence Cell-Based Dose Response HTS to Identify Activators of 5'UTR Stem-Loop Driven Prion Protein mRNA Translation in H4 Neuroglioblastoma Cells. [Related pubchem assays: 1829 (Project Summary), 1814 (Primary HTS)]; format: functional; conditions: Homo sapiens
[16] = Luminescence Cell-Based Dose Response to Identify Activators of Luciferase Translation or Activity in H4-C Neuroglioblastoma Cells. [Related pubchem assays: 1829 (Project Summary), 1814 (Primary HTS)]; format: functional
[17] = Luminescence Cell-Based Dose Confirmation to Identify Activators of 5'UTR Stem-Loop Driven Alpha-Synuclein mRNA Translation in H4 Neuroglioblastoma Cells. [Related pubchem assays: 1829 (Project Summary), 1814 (Primary HTS)]; format: functional
[18] = target: Protein-tyrosine kinase 2-beta (Homo sapiens, UniProt Q14289);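 further: potency of inhibitors of PYK2 kinase phosphorylation of poly-GT substrate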
Sequence of Protein-tyrosine kinase 2-beta (Q14289 whole entry): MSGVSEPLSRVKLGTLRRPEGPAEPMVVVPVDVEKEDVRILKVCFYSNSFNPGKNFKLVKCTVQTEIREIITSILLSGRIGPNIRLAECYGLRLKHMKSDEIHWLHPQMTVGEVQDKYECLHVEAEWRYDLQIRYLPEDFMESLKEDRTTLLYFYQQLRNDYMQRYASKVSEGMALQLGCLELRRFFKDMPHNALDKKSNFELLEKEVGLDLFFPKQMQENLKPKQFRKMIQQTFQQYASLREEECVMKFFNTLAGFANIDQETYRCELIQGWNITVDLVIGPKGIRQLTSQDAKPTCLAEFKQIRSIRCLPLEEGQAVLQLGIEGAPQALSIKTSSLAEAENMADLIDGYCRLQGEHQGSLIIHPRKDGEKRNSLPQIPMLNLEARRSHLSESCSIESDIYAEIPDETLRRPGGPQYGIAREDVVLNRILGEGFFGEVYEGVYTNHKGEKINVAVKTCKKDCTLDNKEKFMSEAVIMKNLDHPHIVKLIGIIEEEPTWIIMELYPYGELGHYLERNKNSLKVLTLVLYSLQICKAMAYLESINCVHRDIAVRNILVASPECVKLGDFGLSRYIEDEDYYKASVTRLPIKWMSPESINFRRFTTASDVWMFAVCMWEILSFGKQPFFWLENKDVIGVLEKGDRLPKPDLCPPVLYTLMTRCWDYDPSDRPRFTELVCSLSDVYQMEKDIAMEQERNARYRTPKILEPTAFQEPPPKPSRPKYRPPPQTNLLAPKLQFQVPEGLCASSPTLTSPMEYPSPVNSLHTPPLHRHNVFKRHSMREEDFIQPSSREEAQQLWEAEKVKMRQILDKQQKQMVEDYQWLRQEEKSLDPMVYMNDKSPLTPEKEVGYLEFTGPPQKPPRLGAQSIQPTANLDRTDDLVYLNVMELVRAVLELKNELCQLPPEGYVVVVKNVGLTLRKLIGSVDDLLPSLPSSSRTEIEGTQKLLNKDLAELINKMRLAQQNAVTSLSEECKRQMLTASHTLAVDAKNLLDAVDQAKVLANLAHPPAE

Sequence of Sphingosine 1-phosphate receptor 1 (P21453 whole entry): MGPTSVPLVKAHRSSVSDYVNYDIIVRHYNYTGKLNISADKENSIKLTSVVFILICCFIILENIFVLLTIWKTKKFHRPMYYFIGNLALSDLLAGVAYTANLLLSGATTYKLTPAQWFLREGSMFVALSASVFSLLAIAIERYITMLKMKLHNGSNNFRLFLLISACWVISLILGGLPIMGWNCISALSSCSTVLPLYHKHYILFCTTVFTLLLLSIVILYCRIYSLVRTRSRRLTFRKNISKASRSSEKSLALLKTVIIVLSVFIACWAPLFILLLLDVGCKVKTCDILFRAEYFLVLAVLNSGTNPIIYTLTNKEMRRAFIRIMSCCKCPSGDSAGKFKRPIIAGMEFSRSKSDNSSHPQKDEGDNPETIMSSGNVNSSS
Sequence of NADPH oxidase 1 (Q9Y5S8 whole entry): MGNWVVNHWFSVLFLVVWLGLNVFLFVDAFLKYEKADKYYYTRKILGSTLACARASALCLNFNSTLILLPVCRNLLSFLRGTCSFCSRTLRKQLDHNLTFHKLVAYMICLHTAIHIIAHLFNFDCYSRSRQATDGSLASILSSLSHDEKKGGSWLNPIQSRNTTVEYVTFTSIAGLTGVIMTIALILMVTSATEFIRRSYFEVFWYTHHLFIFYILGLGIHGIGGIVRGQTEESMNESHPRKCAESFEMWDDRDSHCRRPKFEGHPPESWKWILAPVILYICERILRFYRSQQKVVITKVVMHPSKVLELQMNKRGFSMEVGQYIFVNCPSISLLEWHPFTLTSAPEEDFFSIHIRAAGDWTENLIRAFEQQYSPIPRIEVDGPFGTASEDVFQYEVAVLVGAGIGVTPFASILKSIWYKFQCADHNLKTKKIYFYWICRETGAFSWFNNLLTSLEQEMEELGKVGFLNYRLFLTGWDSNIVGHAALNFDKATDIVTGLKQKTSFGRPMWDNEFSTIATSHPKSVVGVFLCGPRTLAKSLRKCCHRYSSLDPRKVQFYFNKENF

Question: With `COc1ccc([N+](=O)[O-])c(S(=O)(=O)c2ccc(Cl)cc2)n1` as the compound, how does the IC50 [1] read?
Answer: 0.81 µM (active)

Question: What about the IC50 [2] of the same compound?
Answer: 1.15 µM (not active)

Question: What about the IC50 [3] of the same compound?
Answer: 0.391 µM (active)

Question: And the IC50 [4]?
Answer: 4.73 µM (active)

Question: And the CC50 [5]?
Answer: 38.1 µM (active)

Question: What about the AC50 [6] of the same compound?
Answer: 0.753 µM (active)

Question: And the IC50 [7]?
Answer: 11 µM (active)

Question: And the AC50 (INS1)?
Answer: 6.17 µM (active)

Question: And the AC50 [8]?
Answer: 8.16 µM (active)

Question: What about the AC50 [9] of the same compound?
Answer: 7.69 µM (active)

Question: And the AC50 [10]?
Answer: 7.08 µM (active)

Question: And the AC50 [11]?
Answer: 2.64 µM (active)

Question: What about the AC50 [12] of the same compound?
Answer: 3.78 µM (active)

Question: What about the AC50 [13] of the same compound?
Answer: 10 µM (active)

Question: Which IC50 (NADPH oxidase 1) does the source give for `Ic1ccc(-c2nc(-c3ccccc3)c(-c3ccccc3)[nH]2)cc1` here?
Answer: > 17 µM (not active)

Question: For `Cc1ccc(C(=O)CSc2nsc(C)c2C#N)cc1`, which EC50 [14] is on record?
Answer: 0.646 µM (active)

Question: What about the EC50 [15] of the same compound?
Answer: < 0.1 µM (inconclusive)

Question: And the EC50 (H4)?
Answer: > 120 µM (not active)

Question: What about the EC50 [16] of the same compound?
Answer: 1.49 µM (active)

Question: What about the EC50 [17] of the same compound?
Answer: 0.976 µM (active)

Question: Which IC50 [18] does the source give for `COCCO/C(O)=C1\C(C)=NC2=C(C(=O)CC(c3cccs3)C2)C1c1ccsc1` (stereo unspecified) here?
Answer: > 69.5 µM (not active)
